Laboratory results reported in the NIST ThermoML archive (doi:10.1021/je060271a).

Conditions: 303.14 K, Liquid, Vibrating tube method

CCCCCCC(=O)OCC(COC(=O)CCCCCC)(COC(=O)CCCCCC)COC(=O)CCCCCC [pentaerythritol tetraheptanoate]
Conditions | mass density [kg/m3]
163.7 kPa | 970.9
201.8 kPa | 970.9
226 kPa | 970.8
241.8 kPa | 970.9
250.8 kPa | 970.9
258.8 kPa | 970.8
267.9 kPa | 970.9
279.3 kPa | 971
289.8 kPa | 970.8
301.4 kPa | 970.9
315.8 kPa | 970.9
328.9 kPa | 970.9
342.6 kPa | 970.8
354.2 kPa | 971
366.8 kPa | 970.9
380 kPa | 971
397.2 kPa | 971
412.5 kPa | 971
432.5 kPa | 970.9
450.7 kPa | 970.9
470.3 kPa | 971
496.8 kPa | 971
520.4 kPa | 971.1
547 kPa | 971.1
581.4 kPa | 970.9
613 kPa | 971.2
645.8 kPa | 971.1
676.4 kPa | 971.1
706.7 kPa | 971.2
734.4 kPa | 971.2
762.1 kPa | 971.2
785 kPa | 971.2
807.4 kPa | 971.1
827.2 kPa | 971.2
847.6 kPa | 971.2
869.1 kPa | 971.2
895.8 kPa | 971.3
919.6 kPa | 971.2
944.3 kPa | 971.2
969.8 kPa | 971.3
1002.7 kPa | 971.3
1031.7 kPa | 971.4
1063.1 kPa | 971.4
1101.5 kPa | 971.3
1163.5 kPa | 971.4
1217.5 kPa | 971.4
1278.3 kPa | 971.6
1312.2 kPa | 971.5
1337.9 kPa | 971.6
1347.4 kPa | 971.5
1357.1 kPa | 971.5
1376.9 kPa | 971.5
1461 kPa | 971.6
1578.5 kPa | 971.7
1661.5 kPa | 971.6
1692.7 kPa | 971.7
1725.9 kPa | 971.9
1765.8 kPa | 971.8
1800.2 kPa | 971.8
1836.8 kPa | 971.9
1873.8 kPa | 971.9
1919.1 kPa | 972
1958.5 kPa | 971.8
2006.7 kPa | 971.9
2049 kPa | 972.1
2092.9 kPa | 971.9
2137.7 kPa | 972.1
2193.4 kPa | 972
2240.2 kPa | 972.1
2293.3 kPa | 972.3
2315.9 kPa | 972.1
2329.2 kPa | 972.2
2344.7 kPa | 972.2
2358.2 kPa | 972.3
2371.9 kPa | 972.1
2388.4 kPa | 972.3
2402.1 kPa | 972.3
2416.3 kPa | 972.3
2433 kPa | 972.3
2447.2 kPa | 972.3
2464.4 kPa | 972.2
2478.9 kPa | 972.3
2494 kPa | 972.2
2508.9 kPa | 972.2
2528 kPa | 972.2
2539.8 kPa | 972.2
2558.1 kPa | 972.4
2573.1 kPa | 972.3
2592.1 kPa | 972.3
2607.7 kPa | 972.4
2623.3 kPa | 972.3
2639.6 kPa | 972.3
2658.8 kPa | 972.5
2675.1 kPa | 972.3
2691.8 kPa | 972.4
2711.7 kPa | 972.4
2728.4 kPa | 972.4
2745.4 kPa | 972.5
2766 kPa | 972.5
2783.2 kPa | 972.6
2800.7 kPa | 972.5
2821.5 kPa | 972.6
2839.7 kPa | 972.5
2857.4 kPa | 972.6
2879.2 kPa | 972.5
2897.6 kPa | 972.5
2916.3 kPa | 972.5
2935.4 kPa | 972.5
2957.6 kPa | 972.5
2976.7 kPa | 972.5
2995.9 kPa | 972.5
3019.1 kPa | 972.7
